PubChem BioAssay AID2060889 (Molecular Pharmacology Branch, DTP, NCI, 2025)

System: LG0567-F671-PDC complex spheroids viability
Test: Anticancer human tumor LG0567-F671-PDC patient-derived lung adenocarcinoma cell line growth inhibition [RAS]
Conditions: for IC50: curve of first compound; for viability, T/C: stronger effect = lower value
Text: RAS pathway inhibitors in Combinations in Complex Spheroids
A high-throughput screen of multi-cell type tumor spheroids was designed to identify active combinations of RAS pathway inhibitors and targeted small molecules. Complex spheroids include a stromal component modeled by human endothelial cells (HUVEC) and fibroblasts modeled by human mesenchymal stem cells (MSCs). The concentration ranges selected for each drug and investigational agent were based upon clinically achievable concentrations if the clinical Cmax of the agent was known.
Compounds. The drugs and investigational agents: abemaciclib (NSC768073), cobimetinib (NSC768068), divarasib (GDC6063, NSC841802), docetaxel (NSC628503), GDC-1971 (RLY-1971, NSC841576), gemcitabine (NSC613327), inavolisib (NSC800729), ipatasertib (NSC767898), KB-0742 (NSC834161), MRTX-1133 (NSC836407), osimertinib (NSC779217), RMC-4630 (NSC839698), RMC-6236 (NSC851965), RMC-6291 (NSC852671), Ro-3306 (NSC812927), sapanisertib (NSC764658), SN-38 (NSC673596), staurosporine (NSC755774), SY5609 (NSC837396), and tovorafenib (DAY101, NSC766906), were obtained from the National Cancer Institute (NCI) Developmental Therapeutics Program Chemical Repository. The FDA-approved anticancer drug set is available from the NCI Developmental Therapeutics Program. […] The stock solutions were prepared in dimethyl sulfoxide (DMSO, Sigma-Aldrich, St. Louis, MO, cat. D2650) at 800-fold the tested concentration and stored at -70 degrees C prior to their use. All drugs and investigational agents were tested over a range starting from a high concentration at or near the clinical Cmax and decreasing in half-log increments. If the clinical Cmax for an agent had not been determined, the highest concentration tested was 10 microM.
Cell Culture. All cells were maintained in an incubator at 37 degrees C and 5% CO2 with 95% humidity. The PDC lines were cultured according to standard operating procedures established by the NCI PDMR. All PDCs were thawed and cultured in Matrigel-coated flasks prepared with a working solution of 1X Ham's F-12 nutrient mix, without supplementation (Invitrogen, Waltham, MA, cat. 11765054), 100 U/mL penicillin-streptomycin (Invitrogen, cat. 15140122), and 2.5% Matrigel (Corning Inc., Corning, NY, cat. 354248) for the first three passages. The 362531-283-R-J2-PDC and 782815-120-R-J1-PDC lines were cultured in 6C/Colon 1B media, which includes advanced DMEM/F-12 (Thermo Fisher Scientific, cat. 12634028), 10 mM HEPES (Thermo Fisher Scientific, cat. 15630080), 1X GlutaMAX supplement (Thermo Fisher Scientific, cat. 35050061), 0.1 mg/mL primocin (InvivoGen, San Diego, CA, cat. ant-pm-2), 10% defined fetal bovine serum, heat inactivated (HyClone Laboratories Inc., Logan, UT, cat. SH30070.03HI), 50% L-WRN conditioned media (ATCC, cat. CRL-3276), 1.25 mM N-Acetyl-L-cysteine (Sigma-Aldrich, cat. A9165), 10 mM nicotinamide (Sigma-Aldrich, cat. N0636), 1X B-27 supplement (Thermo Fisher Scientific, cat. 17504044), 1X N-2 supplement (Thermo Fisher Scientific, cat. 17502048), 50 ng/mL human EGF (Thermo Fisher Scientific, cat. PHG0311), and 10 microM Y-27632 dihydrochloride (Tocris Bioscience, cat. 1254). The K12877-001-R-J1-PDC line was cultured in 6I media, which includes all 6C/Colon 1B media plus 10 ng/mL human FGF-10 (PeproTech, cat. 100-26), 1 ng/mL human FGF-2 (PeproTech, cat. 100-18B), 1 µM prostaglandin E2 (Tocris Bioscience, cat. 2296), […] hydrocortisone (Sigma-Aldrich, cat. H4001), and […] bovine insulin (Sigma-Aldrich, cat. I6634). The K86415-001-R-J1-PDC line was cultured in 6D media, which includes all 6C/Colon 1B media components minus the L-WRN conditioned media. The 485176-168-R4-J1-PDC was cultured in PANC media, which includes all 6C/Colon 1B media plus 100 ng/mL human FGF-10 (PeproTech, cat. 100-26), 500 nM SB-431542 (Selleckchem, cat. S1067), and 10 nM gastrin (Tocris Bioscience, cat. 3006). […]

[1] = second compound 0.0316 µM, first compound 0.0316 µM
[2] = second compound 0.0316 µM, first compound 0.1 µM
[3] = second compound 0.0316 µM, first compound 0.316 µM
[4] = second compound 0.0316 µM, first compound 1 µM
[5] = second compound 0.0316 µM, first compound 3.16 µM
[6] = second compound 0.0316 µM, first compound 10 µM
[7] = second compound 0.1 µM, first compound 0.0316 µM
[8] = second compound 0.1 µM, first compound 0.1 µM
[9] = second compound 0.1 µM, first compound 0.316 µM
[10] = second compound 0.1 µM, first compound 1 µM
[11] = second compound 0.1 µM, first compound 3.16 µM
[12] = second compound 0.1 µM, first compound 10 µM
[13] = second compound 0.316 µM, first compound 0.0316 µM
[14] = second compound 0.316 µM, first compound 0.1 µM
[15] = second compound 0.316 µM, first compound 0.316 µM
[16] = second compound 0.316 µM, first compound 1 µM
[17] = second compound 0.316 µM, first compound 3.16 µM
[18] = second compound 0.316 µM, first compound 10 µM
[19] = second compound 1 µM, first compound 0.0316 µM
[20] = second compound 1 µM, first compound 0.1 µM
[21] = second compound 1 µM, first compound 0.316 µM
[22] = second compound 1 µM, first compound 1 µM
[23] = second compound 1 µM, first compound 3.16 µM
[24] = second compound 1 µM, first compound 10 µM
[25] = second compound 3.16 µM, first compound 0.0316 µM
[26] = second compound 3.16 µM, first compound 0.1 µM
[27] = second compound 3.16 µM, first compound 0.316 µM
[28] = second compound 3.16 µM, first compound 1 µM
[29] = second compound 3.16 µM, first compound 3.16 µM
[30] = second compound 3.16 µM, first compound 10 µM
[31] = second compound 10 µM, first compound 0.0316 µM
[32] = second compound 10 µM, first compound 0.1 µM
[33] = second compound 10 µM, first compound 0.316 µM
[34] = second compound 10 µM, first compound 1 µM
[35] = second compound 10 µM, first compound 3.16 µM
[36] = second compound 10 µM, first compound 10 µM
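Also: spheroids exposed to compound for seven days before readout.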
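For IC50 in this document: luminescence signal used as a proxy for viable cells.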

With `CC1(O)CCCC1n1c(=O)c(C(F)F)cc2cnc(NC3CCN(S(C)(=O)=O)CC3)nc21` (centres undefined) + C#Cc1c(F)ccc2cc(O)cc(-c3ncc4c(N5CC6CCC(C5)N6)nc(OCC56CCCN5CC(F)C6)nc4c3F)c12 as the compound, how does the IC50 (second compound 0.0316 µM) read?
Its IC50 is 5.85 µM.

And the IC50 (second compound 0.1 µM)?
Its IC50 is 6.12 µM.

And the IC50 (second compound 0.316 µM)?
The IC50 was 3.37 µM.

What about the IC50 (second compound 1 µM) of the same compound?
The IC50 was less than 0.0316 µM.

What about the IC50 (second compound 3.16 µM) of the same compound?
Its IC50 is less than 0.0316 µM.

And the IC50 (second compound 10 µM)?
The IC50 was less than 0.0316 µM.

What about the viability, T/C [1] of the same compound?
The viability, T/C was 85.5%.

And the viability, T/C [2]?
Its viability, T/C is 68.3%.

And the viability, T/C [3]?
The viability, T/C was 77.8%.

And the viability, T/C [4]?
Its viability, T/C is 85.4%.

What about the viability, T/C [5] of the same compound?
Its viability, T/C is 78.9%.

What about the viability, T/C [6] of the same compound?
Its viability, T/C is 24.9%.

What about the viability, T/C [7] of the same compound?
The viability, T/C was 72.2%.

And the viability, T/C [8]?
The viability, T/C was 59.1%.

What about the viability, T/C [9] of the same compound?
The viability, T/C was 75.2%.

What about the viability, T/C [10] of the same compound?
The viability, T/C was 81.6%.

What about the viability, T/C [11] of the same compound?
The viability, T/C was 76.9%.

What about the viability, T/C [12] of the same compound?
Its viability, T/C is 33.1%.

What about the viability, T/C [13] of the same compound?
The viability, T/C was 56.1%.

And the viability, T/C [14]?
Its viability, T/C is 56.2%.

What about the viability, T/C [15] of the same compound?
Its viability, T/C is 62.7%.

What about the viability, T/C [16] of the same compound?
The viability, T/C was 54.5%.

And the viability, T/C [17]?
The viability, T/C was 71.1%.

What about the viability, T/C [18] of the same compound?
Its viability, T/C is 27.5%.

And the viability, T/C [19]?
Its viability, T/C is 33.1%.

And the viability, T/C [20]?
The viability, T/C was 36.8%.

And the viability, T/C [21]?
Its viability, T/C is 45.6%.

What about the viability, T/C [22] of the same compound?
Its viability, T/C is 40%.

What about the viability, T/C [23] of the same compound?
Its viability, T/C is 40.6%.

And the viability, T/C [24]?
The viability, T/C was 18.3%.

And the viability, T/C [25]?
Its viability, T/C is 17.3%.

And the viability, T/C [26]?
Its viability, T/C is 23.6%.

And the viability, T/C [27]?
Its viability, T/C is 25.2%.

And the viability, T/C [28]?
The viability, T/C was 29.3%.

And the viability, T/C [29]?
The viability, T/C was 23.3%.

What about the viability, T/C [30] of the same compound?
Its viability, T/C is 14.6%.

And the viability, T/C [31]?
The viability, T/C was 14.2%.

And the viability, T/C [32]?
The viability, T/C was 15.3%.

And the viability, T/C [33]?
The viability, T/C was 17.8%.

And the viability, T/C [34]?
The viability, T/C was 18.5%.

And the viability, T/C [35]?
The viability, T/C was 14.7%.

What about the viability, T/C [36] of the same compound?
The viability, T/C was 8.46%.

How did the IC50 (second compound 0.0316 µM) turn out when `CCC(CC)c1cc(NC2CCC(N)C2)n2nccc2n1` (centres undefined) + C#Cc1c(F)ccc2cc(O)cc(-c3ncc4c(N5CC6CCC(C5)N6)nc(OCC56CCCN5CC(F)C6)nc4c3F)c12 was run?
Its IC50 is 1.9 µM.

What about the IC50 (second compound 0.1 µM) of the same compound?
The IC50 was 1.71 µM.

What about the IC50 (second compound 0.316 µM) of the same compound?
Its IC50 is 1.25 µM.

What about the IC50 (second compound 1 µM) of the same compound?
Its IC50 is less than 0.0316 µM.

What about the IC50 (second compound 3.16 µM) of the same compound?
The IC50 was less than 0.0316 µM.

And the IC50 (second compound 10 µM)?
The IC50 was less than 0.0316 µM.

What about the viability, T/C [1] of the same compound?
The viability, T/C was 102%.

What about the viability, T/C [2] of the same compound?
Its viability, T/C is 97.2%.

What about the viability, T/C [3] of the same compound?
Its viability, T/C is 111%.

And the viability, T/C [4]?
Its viability, T/C is 119%.

And the viability, T/C [5]?
Its viability, T/C is 4.67%.

What about the viability, T/C [6] of the same compound?
The viability, T/C was 0.25%.

What about the viability, T/C [7] of the same compound?
The viability, T/C was 78.4%.

And the viability, T/C [8]?
The viability, T/C was 83.5%.

What about the viability, T/C [9] of the same compound?
Its viability, T/C is 92.2%.

What about the viability, T/C [10] of the same compound?
The viability, T/C was 104%.

And the viability, T/C [11]?
Its viability, T/C is 4.32%.

And the viability, T/C [12]?
Its viability, T/C is 0.47%.

And the viability, T/C [13]?
The viability, T/C was 60.3%.

What about the viability, T/C [14] of the same compound?
The viability, T/C was 57.3%.

And the viability, T/C [15]?
The viability, T/C was 59.7%.

And the viability, T/C [16]?
The viability, T/C was 67.8%.

What about the viability, T/C [17] of the same compound?
Its viability, T/C is 3.78%.

What about the viability, T/C [18] of the same compound?
Its viability, T/C is 0.39%.

What about the viability, T/C [19] of the same compound?
Its viability, T/C is 32.4%.

And the viability, T/C [20]?
Its viability, T/C is 37%.

What about the viability, T/C [21] of the same compound?
The viability, T/C was 43.4%.

And the viability, T/C [22]?
The viability, T/C was 38.2%.

And the viability, T/C [23]?
Its viability, T/C is 3.47%.

What about the viability, T/C [24] of the same compound?
The viability, T/C was 0.38%.

What about the viability, T/C [25] of the same compound?
Its viability, T/C is 18.2%.

What about the viability, T/C [26] of the same compound?
Its viability, T/C is 17.8%.

And the viability, T/C [27]?
Its viability, T/C is 20.2%.

What about the viability, T/C [28] of the same compound?
The viability, T/C was 17.1%.

And the viability, T/C [29]?
The viability, T/C was 2.86%.

What about the viability, T/C [30] of the same compound?
Its viability, T/C is 0.37%.

And the viability, T/C [31]?
Its viability, T/C is 10.3%.

What about the viability, T/C [32] of the same compound?
Its viability, T/C is 11.3%.

And the viability, T/C [33]?
The viability, T/C was 10.3%.

And the viability, T/C [34]?
Its viability, T/C is 9.32%.

What about the viability, T/C [35] of the same compound?
The viability, T/C was 1.25%.

What about the viability, T/C [36] of the same compound?
Its viability, T/C is 0.15%.
